Data reported in patent US20070049538A1, “METHODS FOR USING CUCURBITACIN COMPOUNDS” (SOUTH DAKOTA STATE UNIVERSITY, priority 2005, published 2007).
Like-named read-outs stand apart in the source and are kept apart here.

Key:
HSC-T6 cells [1] = assay: Serum-driven HSC-T6 proliferation, experiment 3 (24 h, proliferating cells); format: cell-based, rat; conditions: HSC-T6, 24 h, read-out: Experiment 3 EC50 (A)
Method: (§1) To overcome this problem, the amount of incubation time was increased to 24 h, and cucurbitacin activity measured on starved (Exp. 2) or proliferative (Exp. 3) cells (Table 8). Cells turned quiescent when serum was not supplemented for one day (Exp. 2). Activity of a few compounds was monitored on quiescent cells, and their activity compared to the ones measured on proliferating cells (Exp. 3).
(§2) We established several experimental conditions such as 4 hours of incubation time with cucurbitacin, and 2 day cell incubation with fresh media after challenging with cucurbitacin (Exp. 1). Other experiments involved addition of cucurbitacin for 24 hours over starved cells (Exp. 2) vs. proliferating cells (Exp. 3), and one day incubation of cells with fresh media after challenge. The 4 hour incubation period with cucurbitacin triggered anti-proliferation effect. This effect, however, was hindered by a second cycle of cell proliferation during the two-day cell growth period (see silybin, E and I glucosides, and for I-nPr). […] Because of that, the challenge time was increased to 24 hours (Exp. 2 and 3).
(§3) In experiment 3, only 40% of the cells divided. The ratio of EC50 values for exp. 2 and exp. 3 varied between 3.6 and 12.7. This may indicate differential cytotoxicity of silybin and cucurbitacin analogs over quiescent and active stellate cells. In other words, compounds show higher anti-proliferative activity on active cells than on quiescent cells.

HSC-T6 cells [2] = assay: Serum-driven HSC-T6 proliferation, experiment 1 (4 h challenge, two days drug-free growth); format: cell-based, rat; conditions: for EC50: HSC-T6, 4 h challenge, then two days drug-free media
Method: The proliferation effect of serum on HSC-T6 cells was optimized and cucurbitacin antiproliferative activity was measured. Serum contains a large number of growth factors, hormones and other nutrients, which help cells to grow and multiply. Several trials were conducted. In experiment 1, cells were challenged with cucurbitacin analogs for 4 h and then cells were grown in drug-free media for two additional days.
HSC-T6 cells were photographed under phase-contrast microscope to record possible changes in cell morphology during experiment 1. […] We are monitoring specifically the effect of compound on the cells, cell recovery after 4 h challenge, and relative cell proliferation. […] Live cells are quantified at the end of the assay (row 4) with MTT dye.
We established several experimental conditions such as 4 hours of incubation time with cucurbitacin, and 2 day cell incubation with fresh media after challenging with cucurbitacin (Exp. 1). Other experiments involved addition of cucurbitacin for 24 hours over starved cells (Exp. 2) vs. proliferating cells (Exp. 3), and one day incubation of cells with fresh media after challenge. […] Because of that, the challenge time was increased to 24 hours (Exp. 2 and 3).
We modified this approach. Our assay included a second control (ZC) supplemented with no serum intended to measure cucurbitacin anti-proliferation effect relative to the number of cells generated during challenge instead of the total number of cells present in each well.

HepG2 cells [3] = assay: cells
Text: Experimental conditions were standardized on silybin. […]
The ratio of IC50-to-EC50 (hereafter T/A) is also indicated in this table, which gives the margin between toxic and cytoprotective concentrations.

HSC-T6 cells [4] = assay: Cytotoxicity on HSC-T6 cells (experiment 3); format: cell-based, rat; conditions: for IC50: read-out: Experiment 3 IC50 (T)
Text: Cytotoxicity of all cucurbitacin analogs was additionally measured in experiment 3 (Table 8).

HSC-T6 cells [5] = assay: Serum-driven HSC-T6 proliferation, experiment 2 (24 h, starved/quiescent cells); format: cell-based, rat; conditions: HSC-T6, 24 h, read-out: Experiment 2 EC50
Method: as §1, §2, §3

HepG2 cells [6] = format: cell-based, human
Method: The activity of two toxins was studied first on HepG2 cells—bromobenzene (BB) and CCl4. Cells were challenged with the toxins at different concentration levels. Precipitate formation was observed when BB was diluted with media prior to addition to the cells; therefore, both the precipitate and the supernatant were added separately over cells to study their toxic effect.

[7] = tested on: lipid peroxidation of microsomal suspension; assay: Microsomal Lipid Peroxidation Assay; format: biochemical; conditions: at 0.1 mM, both chemical and enzymatic assays
Method: Cucurbitacin anti-lipid peroxidation was studied by the Microsomal Lipid Peroxidation Assay (Engineer et al., Biochemical Pharmacology 38(8): 1279-1285, 1989). Lipid peroxidation of microsomal suspension was induced both enzymatically and chemically and validated on the standard compound quercetin. […] Activity of 3 cucurbitacin analogs, B, E, and E-Me-ether was monitored at 0.1 mM indicating no inhibition in either the chemical or enzymatic assay.

[8] = Chromatographic hydrophobicity index (CHI) by RP-HPLC in buffered methanol; format: physicochemical; conditions: for CHIMeOH: buffered methanol pH 7.0, Econosil C18 150 mm, Eq. (4)
Method: (§4) We used Dynamax liquid chromatograph (Varian Chromatography Systems) with PDA-2 photodiode array UV detector, controlled by the Dynamax PC Chromatography Data System (v. 1.9) software and Dynamax dual pump solvent delivery system, model SD-200. […] Cucurbitacins analytical separation was optimized on Alltima C18 (Alltech; 250 mm×4.6 mm, 5 μm) HPLC column, at gradient elution in acetonitrile (ACN, 30-70% ACN in 57 min), and in MeOH (60-75% MeOH in 50 min). Cucurbitacins stock concentration of 10^−2M in DMSO:ethanol (1:1) was standardized against pure cucurbitacin I (Indofine Chemical Company, Hillsborough, N.J.) by analytical HPLC means. Compounds CHI was measured in both ACN, by using Alltima C18 column, and in MeOH, by using Econosil C18 column (Alltech; 150 mm×4.6 mm, 5 μm). Analytical separations were conducted at a flow rate of 1 ml/min. The aqueous phase was buffered for the CHI measurement. For this purpose, solid ammonium acetate (Fisher Sci. Co., Fair Lawn, N.J.) was dissolved in deionized distilled water at 50 mM final concentration and its pH adjusted to 7.0.
A standard mixture of 10 compounds including 19-21, 23-27, aniline (compound 28) and bromobenzene (compound 29), dissolved in MeOH, was injected at five isochratic elution, at 40, 45, 50, 55, and 60% MeOH. Then the mixture was injected at fast gradient elution to establish the correlation from Eq. (1). The fast linear gradient elution was optimized for 30-100% MeOH in aqueous buffer with 10 min runtime.
(§5) Cucurbitacins lipophilicity was measured by RP-HPLC. […] Due to its high viscosity, aqueous MeOH required a shorter column than the one applied for ACN. First, the C18 columns were calibrated against a standard mixture, and the relationships established between the fast gradient tR and φ0 or published CHI (see Eqs. (2)-(4) from Table 2). Second, cucurbitacins were injected at fast gradient elution under similar conditions, and their CHI calculated (Table 4) from Eqs. (2)-(4). Eqs.

[9] = Chromatographic hydrophobicity index (CHI) by RP-HPLC in buffered acetonitrile; format: physicochemical; design: key: CHI = φ0 (isocratic hydrophobicity index), = A·tR + B; ACN % scale; conditions: for CHIACN1: buffered acetonitrile pH 7.0, Alltima C18 250 mm, Eq. (2) from isocratic φ0; for CHIACN2: buffered acetonitrile pH 7.0, Eq. (3) calibrated against published CHI
Method: as §4
All standard compounds were purchased from Acros (Acros Organics, NJ). The chromatographic lipophilicity or hydrophobicity was determined applying Valkó's technique (Valkó et al., Anal. Chem. 69 (1997) 2022, the entire disclosure of which is herein incorporated by reference). A standard mixture of seven compounds was prepared in solution: theophylline (compound 19), benzimidazole (compound 20), acetophenone (compound 21), indole (compound 22), propiophenone (compound 23), butyrophenone (compound 24), and valerophenone (compound 25). […] The retention factor, log k=log((tR-t0)/t0), was calculated for each analyte from five good injections of […] sample. The dead time (t0) was measured by injecting NaNO3 together with the sample. Then, the log k values were plotted against isocratic ACN concentrations to establish the linear regression equations for each analyte. From each straight line the isocratic hydrophobicity index was computed, φ0=(intercept/slope). Further, the calibration mixture was injected at fast gradient elution, 0-22 min 0-100% ACN, and three additional minutes at 100% ACN. The φ0 values for the test compounds were plotted against gradient retention time and the linear equation determined from the following equation: φ0=CHI=AtR+B (1)
The gradient elution conditions were similar to the one from the first approach.
as §5

[10] = ABTS*+ Radical Cation Decolorization Assay; conditions: read-out: concentration of 50% inhibition
Method: Cucurbitacin B activity was monitored at 50 μM, 100 μM, and 1.8 mM. The time interval was expanded up to 2 hours in case cucurbitacin B was reacting slowly.

[11] = in vivo; cited from earlier work
[12] = DPPH* Stable Free Radical Scavenging Assay
Method: Cucurbitacin antioxidant activity was studied first by the DPPH* Stable Free Radical Scavenging Assay (Cotelle et al., Free radical Biology & Medicine 20(1): 35-43, 1996). Experimental conditions were optimized on the standard compound ascorbic acid. Data indicated 30% activity at 50 μM concentration, and 100% activity at 100 μM for ascorbic acid. While the original assay required 10 minutes incubation time for the reaction to occur, this time was increased up to 30 minutes in case cucurbitacin were reacting slower than other reagents.

HepG2 cells [13] = assay: Cucurbitacins cytotoxicity on HepG2 cells (MTT viability assay); format: cell-based, human
Method: HepG2 (human hepatocellular carcinoma, ATCC) cells were grown in EMEM (Gibco, Grand Island, N.Y.) supplemented with 10% fetal bovine serum (FBS), and 1% penicillin/fungizone mixture (Gibco). Thabrew's optimized procedure (Thabrew et al., J. Pharm. Pharmcol. 49 (1994) 1442, the entire disclosure of which is herein incorporated by reference) was followed. Cells were batch cultured for 10 days, then seeded at concentration of 30,000 cells/well in fresh media in 96-well microtiter plastic plates at 37° C. for a day. Then cells were exposed to different concentrations of cucurbitacins at final volume of 100 μl/well. Five-fold serial dilution of compounds was carried out in the plate for five consecutive wells. After 24 h of incubation with chemicals, live cells were visualized using the MTT viability assay (Promega, Madison, Wis.). The absorbance was measured at 570 nm. Negative (without cells) and positive (without test chemicals) controls were also incubated with each plate. […] At least three reproducible experiments were performed per compound with three replicate wells per concentration.
Cells were challenged with cu-curbitacins at various concentrations for a day and then live cells quantified with MTT dye. This period of time measures exclusively compounds cytotoxicity, while longer incubation time may lead to interference from metabolites.

[14] = read-out: EC50 cytoprotection, Table 7, HepG2 against CCl4 toxicity, estimated

For COc1cc(C2Oc3cc([C@H]4Oc5cc(O)cc(O)c5C(=O)[C@@H]4O)ccc3OC2CO)ccc1O (stereo partly shown) [Silybin, reference compound], the EC50 (HSC-T6 cells [1]; Rattus norvegicus) was 18.8 µM, the “Experiment 1 anti-proliferation activity reached” value (HSC-T6 cells [2]; EC50 could not be estimated) was < 50% and the “Experiment 1 anti-proliferation activity” value (HSC-T6 cells [2]; measured at 100 μM) was “˜20%^a^”. The “cell growth with compound alone” value (HepG2 cells [3]; HepG2, 14 to 200 μM, absence of CCl4) was “up to 125%”, the “concentration giving complete protection from CCl4” value (HepG2 cells [3]; HepG2, CCl4 4.5×10^−3 M) was “higher than 100 μM” and the EC50 (HepG2 cells [3]; Homo sapiens, HepG2, read-out: EC50 cytoprotection) was 45 µM. For the same compound, the cytoprotection attained (HepG2 cells [3]; text b199) was 100%, the “Experiment 3 IC50 (T)” value (HSC-T6 cells [4]) was “non toxic” and the EC50 (HSC-T6 cells [5]; Rattus norvegicus) was 68 µM.

In the case of ClC(Cl)(Cl)Cl [CCl4], the cell viability (HepG2 cells [6]; HepG2, toxin at 4.5×10^−3 M) is reported as ~50%.

In the case of O=c1c(O)c(-c2ccc(O)c(O)c2)oc2cc(O)cc(O)c12 [quercetin, reference compound], the “inhibition of lipid peroxidation” value [7] is reported as 100%.

Work on CCOC1=CC2C(=CCC3C2(C)C(=O)CC2(C)C(C(C)(O)C(=O)C=CC(C)(C)O)C(O)CC32C)C(C)(C)C1=O (stereo not shown) [I-Et] yielded an EC50 (HSC-T6 cells [1]; proliferating cells) of 0.34 µM, an EC50 (HSC-T6 cells [2]) of 7.95 µM and a CHIMeOH [8] of 69.61. For the same compound, the CHIACN1 [9] was 69.99, the CHIACN2 [9] was 73.94 and the IC50 (HSC-T6 cells [4]) was 3.5 µM. For the same compound, the EC50 (HSC-T6 cells [5]; starved (quiescent) cells) was 1.4 µM.

Cc1c(C)c2c(c(C)c1O)CCC(C)(C(=O)O)O2 (stereo not shown) [trolox, reference compound] gave an IC50 [10] of 580 µM.

With CC(=O)OC(C)(C)/C=C/C(=O)[C@@](C)(O)[C@H]1[C@H](O)C[C@@]2(C)[C@@H]3CC=C4[C@@H](CC(=O)[C@@H](O)C4(C)C)[C@]3(C)C(=O)C[C@]12C [iso-B, iso-cucurbitacin B] the CHIMeOH [8] was 68.50, the CHIACN1 [9] was 72.86 and the CHIACN2 [9] was 78.38. The “protective and preventive activity” value [11] was “significantly reducing serum enzymes level, steatosis, inflammation, and experimental cholestasis”.

For COC1=CC2C(=CCC3C2(C)C(=O)CC2(C)C(C(C)(O)C(=O)CCC(C)(C)O)C(O)CC32C)C(C)(C)C1=O [L-Me], the EC50 (HSC-T6 cells [1]; proliferating cells) was 0.18 µM, the EC50 (HSC-T6 cells [2]) was 10.8 µM and the CHIMeOH [8] was 66.58. It also gave an EC50 (HepG2 cells [3]; [14]) of 5 µM, a CHIACN1 [9] of 64.84 and a CHIACN2 [9] of 65.95. It also gave an IC50 (HSC-T6 cells [4]) of 6.7 µM and an EC50 (HSC-T6 cells [5]; starved (quiescent) cells) of 1 µM.

In the case of O=C1O[C@H]([C@@H](O)CO)C(O)=C1O [ascorbic acid], the DPPH activity ([12]; at 50 μM) is reported as 30% and the DPPH activity ([12]; at 100 μM) is reported as 100%.

COC1=CC2C(=CCC3C2(C)C(=O)CC2(C)C(C(C)(O)C(=O)C=CC(C)(C)O)C(O)CC32C)C(C)(C)C1=O (stereo not shown) [I-Me] gave an EC50 (HSC-T6 cells [1]; proliferating cells) of 0.11 µM, an EC50 (HSC-T6 cells [2]) of 3.4 µM and a CHIMeOH [8] of 66.58. For the same compound, the EC50 (HepG2 cells [3]; [14]) was 5.3 µM, the CHIACN1 [9] was 64.84 and the CHIACN2 [9] was 65.95. The IC50 (HSC-T6 cells [4]) was 6.4 µM, the EC50 (HSC-T6 cells [5]; starved (quiescent) cells) was 1.4 µM and the IC50 (HepG2 cells [13]; Table 4, 24 h incubation, MTT) was 15 µM. The IC50 (HepG2 cells [13]; Table 5) was 15 ± 5.6 µM and the IC50 (HepG2 cells [13]; Table 7) was 15 µM.

In the case of Brc1ccccc1 [Bromobenzene (29), bromobenzene, reference compound], the “CHIMeOH (b)” value ([8]; standard compounds, isochratic and gradient elution of standard mixture) is reported as 69.43 + 0.07 and the cell viability (HepG2 cells [6]; HepG2, toxin at 20 nM) is reported as “no viability”.
